Measured values from patent US4145554A, “3-Nitropyrazole derivatives” (Eli Lilly and Company, priority 1977, dated 1979).
Converted amounts (≈) assume the structure as drawn. Like-named read-outs stand apart in the source and are kept apart here.

Experiments:
[1] = tested on: Streptococcus sp. 80; assay: in vitro tube dilution test (MIC); format: cell-based
From the text: (§1) Other compounds of our invention have also been tested in the tube dilution test and shown to have in vitro activity against a number of microorganisms. The table below reports tests of a number of exemplary compounds against exemplary microorganisms. The compounds are identified by their numbers in the listing above. The data are reported as the MIC in micrograms per milliliter against the named exemplary microorganisms.

[2] = tested on: Salmonella dublin; assay: in vitro tube dilution test (MIC); format: cell-based; conditions: Salmonella enterica
From the text: (§2) The other preferred compounds of our invention have also been thoroughly tested in the in vitro tube dilution test.
as §1

[3] = tested on: Vibrio coli 3811; assay: in vitro tube dilution test (MIC); format: cell-based; conditions: Campylobacter coli
From the text: as §2, §1

[4] = tested on: Staphylococcus aureus sp. 1130; assay: in vitro tube dilution test (MIC); format: cell-based
From the text: as §2, §1

[5] = tested on: Pasteurella multocida; assay: in vitro tube dilution test (MIC); format: cell-based
From the text: (§3) Our compound, 1-(2-hydroxyethyl)-3-nitro-4-pyrazolecarboxamide, has been extensively tested in vitro to determine the range of microorganisms against which it is active. The table of data below reports the minimum inhibitory concentration (MIC) at which the compound is effective in controlling a variety of microorganisms in a standard tube dilution test system. The MIC is reported as micrograms of compound per milliliter.
as §2, §1

[6] = tested on: Salmonella typhimurium; assay: Salmonellosis in chickens, single injection to day-old chicks; format: in vivo; conditions: for responders at 60 mg/kg: Salmonella enterica, TYPHIMURIUM, 168 h, single injection of 60 mg./kg., seven days, read-out: Survival (converted)
Procedure: A number of our 3-nitropyrazoles have been tested against an induced infection of Salmonella typhimurium in day-old chicks. The test was conducted by administering a single injection of 60 mg./kg. of the compounds to each of five chicks. The following day, the chicks were challenged by the subcutaneous injection of a dispersion of S. typhimurium organisms sufficient to kill most or all of the untreated control chicks.
Some of the compounds were tested more than once, in which instances the data are reported as the total survivors from the multiple treatment groups. Untreated, challenged control groups of chicks were tested together with each batch of groups of chicks to which test compounds were administered. Since the mortality of the untreated control chicks varied somewhat from one group of tests to another, results of the untreated control groups are reported below with each test.

[7] = tested on: Mycoplasma gallisepticum; assay: in vitro tube dilution test (MIC); format: cell-based; conditions: Mycoplasmoides gallisepticum
From the text: as §3, §1

[8] = tested on: Escherichia coli; assay: in vitro tube dilution test (MIC); format: cell-based
From the text: as §3, §1

[9] = tested on: Streptococcus pyogenes; assay: Tests in mice, Streptococcus pyogenes infection; format: in vivo; conditions: S. pyogenes; for Days Survived: two subcutaneous doses of 83 mg./kg., 1 and 5 hours; for ED50: Streptococcus pyogenes, sc, subcutaneous, 1 and 5 hours post-inoculation
Procedure: (§4) Groups of laboratory mice were inoculatd with E. coli or with Streptococcus pyogenes. The 3-nitropyrazoles were administered in two different modes to the infected mice. In one group of tests, the compound was administered in two subcutaneous doses of 83 mg./kg. each, given 1 and 5 hours after the mice were inoculated with the organism. The mice were observed, and the results reported below as the number of days the treated mice survived the challenge.
(§5) In the other group of tests, the dose of each compound which allowed 50 percent of the treated mice to survive the challenge was determined. Again, the compound was administered in subcutane divided doses, 1 and 5 hours post-inoculation.

[10] = tested on: E. coli; assay: Tests in mice, E. coli infection; format: in vivo
Procedure: as §4, §5

[11] = Streptococcus sp. 80, tube dilution, read-out: MIC
[12] = Salmonella dublin, tube dilution, read-out: MIC
[13] = Vibrio coli 3811, tube dilution, read-out: MIC
[14] = Staphylococcus aureus sp. 1130, tube dilution, read-out: MIC
[15] = Mycoplasma gallisepticum, tube dilution, read-out: MIC

**Q.** `CC(=O)Cn1cc(C(N)=O)c([N+](=O)[O-])n1` [Compound 9, 1-(2-oxopropyl)-3-nitro-4-pyrazolecarboxamide] was tested. Which MIC [1, 11] did it give?
**A.** 50 µg/mL (≈ 236 µM)

**Q.** And the MIC [2, 12]?
**A.** 6.25 µg/mL (≈ 29.5 µM)

**Q.** And the MIC [3, 13]?
**A.** 6.25 µg/mL (≈ 29.5 µM)

**Q.** What about the MIC [4, 14] of the same compound?
**A.** 6.25 µg/mL (≈ 29.5 µM)

**Q.** And the MIC ([5]; tube dilution, read-out: MIC)?
**A.** > 50 µg/mL

**Q.** And the responders at 60 mg/kg [6]?
**A.** 100%

**Q.** And the MIC [7, 15]?
**A.** > 50 µg/mL

**Q.** And the MIC ([8]; tube dilution, read-out: MIC)?
**A.** 12.5 µg/mL (≈ 58.9 µM)

**Q.** `NC(=O)c1cn(Cc2ccccc2)nc1[N+](=O)[O-]` [Compound 18, 1-benzyl-3-nitro-4-pyrazolecarboxamide] was tested. Which MIC [1, 11] did it give?
**A.** 50 µg/mL (≈ 203 µM)

**Q.** And the MIC [2, 12]?
**A.** 12.5 µg/mL (≈ 50.8 µM)

**Q.** And the MIC [3, 13]?
**A.** 50 µg/mL (≈ 203 µM)

**Q.** And the MIC [4, 14]?
**A.** 6.25 µg/mL (≈ 25.4 µM)

**Q.** And the MIC ([5]; tube dilution, read-out: MIC)?
**A.** 12.5 µg/mL (≈ 50.8 µM)

**Q.** What about the responders at 60 mg/kg [6] of the same compound?
**A.** 70%

**Q.** And the MIC [7, 15]?
**A.** 6.25 µg/mL (≈ 25.4 µM)

**Q.** And the MIC ([8]; tube dilution, read-out: MIC)?
**A.** 12.5 µg/mL (≈ 50.8 µM)

**Q.** Which MIC [1, 11] does the source give for `CCS(=O)(=O)CCn1cc(C(N)=O)c([N+](=O)[O-])n1` [Compound 35, 1-(2-ethylsulfonylethyl)-3-nitro-4-pyrazolecarboxamide] here?
**A.** 25 µg/mL (≈ 90.5 µM)

**Q.** What about the MIC [2, 12] of the same compound?
**A.** 50 µg/mL (≈ 181 µM)

**Q.** What about the MIC [3, 13] of the same compound?
**A.** 50 µg/mL (≈ 181 µM)

**Q.** And the MIC [4, 14]?
**A.** 3.12 µg/mL (≈ 11.3 µM)

**Q.** What about the MIC ([5]; tube dilution, read-out: MIC) of the same compound?
**A.** 6.25 µg/mL (≈ 22.6 µM)

**Q.** And the “Days Survived” value [9]?
**A.** 7.0 days

**Q.** And the ED50 [9]?
**A.** 36.2 mg/kg

**Q.** What about the responders at 60 mg/kg [6] of the same compound?
**A.** 80%

**Q.** And the MIC [7, 15]?
**A.** > 50 µg/mL

**Q.** What about the MIC ([8]; tube dilution, read-out: MIC) of the same compound?
**A.** 50 µg/mL (≈ 181 µM)

**Q.** And the “Days Survived” value ([10]; two subcutaneous doses of 83 mg./kg., 1 and 5 hours)?
**A.** 1.0 days

**Q.** Which MIC [1, 11] does the source give for `NC(=O)c1cn(CCCl)nc1[N+](=O)[O-]` [Compound 52, 1-(2-chloroethyl)-3-nitro-4-pyrazolecarboxamide] here?
**A.** 50 µg/mL (≈ 229 µM)

**Q.** What about the MIC [2, 12] of the same compound?
**A.** 3.12 µg/mL (≈ 14.3 µM)

**Q.** And the MIC [3, 13]?
**A.** 25 µg/mL (≈ 114 µM)

**Q.** And the MIC [4, 14]?
**A.** > 1.56 µg/mL

**Q.** What about the MIC ([5]; tube dilution, read-out: MIC) of the same compound?
**A.** 12.5 µg/mL (≈ 57.2 µM)

**Q.** What about the responders at 60 mg/kg [6] of the same compound?
**A.** 80%

**Q.** What about the MIC [7, 15] of the same compound?
**A.** > 50 µg/mL

**Q.** What about the MIC ([8]; tube dilution, read-out: MIC) of the same compound?
**A.** 3.12 µg/mL (≈ 14.3 µM)

**Q.** Which results are given for `NC(=O)c1cn(C2C=CC(n3cc(C(N)=O)c([N+](=O)[O-])n3)C=C2)nc1[N+](=O)[O-]` (stereo not shown) [Compound 59, 1,1'-(2,5-cyclohexadien-1,4-ylene)-bis(3-nitro-4-pyrazolecarboxamide)]?
**A.** MIC ([1]; Streptococcus, SP.80): > 50 µg/mL; MIC [2]: 3.12 µg/mL (≈ 8.04 µM); MIC [3]; 3811: 12.5 µg/mL (≈ 32.2 µM); MIC ([4]; Staphylococcus aureus, SP.1130): 1.56 µg/mL (≈ 4.02 µM); MIC [5]: 3.12 µg/mL (≈ 8.04 µM); chicks protected of the 5-bird treated group ([6]; salmonella challenge): at least three chicks of the 5-bird treated group; MIC [7]: 3.12 µg/mL (≈ 8.04 µM); MIC [8]: 3.12 µg/mL (≈ 8.04 µM)

**Q.** What does the source list for `CNC(=O)c1cn(C)nc1[N+](=O)[O-]` [Compound 61, N,1-dimethyl-3-nitro-4-pyrazolecarboxamide]?
**A.** MIC [1, 11]: 50 µg/mL (≈ 272 µM); MIC [2, 12]: 50 µg/mL (≈ 272 µM); MIC [4, 14]: 50 µg/mL (≈ 272 µM); Days Survived [9]: 1.0 days; ED50 [9]: > 83 mg/kg; responders at 60 mg/kg [6]: 70%; MIC [7, 15]: 12.5 µg/mL (≈ 67.9 µM); MIC ([8]; tube dilution, read-out: MIC): 50 µg/mL (≈ 272 µM); ED50 ([10]; Escherichia coli, sc, subcutaneous, 1 and 5 hours post-inoculation): 68 mg/kg

**Q.** What does the source list for `NC(=O)c1cn(CCCO)nc1[N+](=O)[O-]` [Compound 62, 1-(3-hydroxypropyl)-3-nitro-4-pyrazolecarboxamide]?
**A.** MIC [1, 11]: 50 µg/mL (≈ 233 µM); MIC [2, 12]: 3.12 µg/mL (≈ 14.6 µM); MIC [3, 13]: 12.5 µg/mL (≈ 58.4 µM); MIC [4, 14]: 50 µg/mL (≈ 233 µM); MIC ([5]; tube dilution, read-out: MIC): 6.25 µg/mL (≈ 29.2 µM); responders at 60 mg/kg [6]: 70%; MIC [7, 15]: 1.56 µg/mL (≈ 7.28 µM); MIC ([8]; tube dilution, read-out: MIC): 6.25 µg/mL (≈ 29.2 µM)

**Q.** For `NC(=O)c1cn(CCCCl)nc1[N+](=O)[O-]` [Compound 63, 1-(3-chloropropyl)-3-nitro-4-pyrazolecarboxamide], which MIC [1, 11] is on record?
**A.** > 50 µg/mL

**Q.** And the MIC [2, 12]?
**A.** 12.5 µg/mL (≈ 53.7 µM)

**Q.** What about the MIC [3, 13] of the same compound?
**A.** 25 µg/mL (≈ 107 µM)

**Q.** And the MIC [4, 14]?
**A.** 50 µg/mL (≈ 215 µM)

**Q.** What about the MIC ([5]; tube dilution, read-out: MIC) of the same compound?
**A.** 25 µg/mL (≈ 107 µM)

**Q.** What about the responders at 60 mg/kg [6] of the same compound?
**A.** 40%

**Q.** And the MIC [7, 15]?
**A.** 6.25 µg/mL (≈ 26.9 µM)

**Q.** What about the MIC ([8]; tube dilution, read-out: MIC) of the same compound?
**A.** 50 µg/mL (≈ 215 µM)

**Q.** Which MIC [1, 11] does the source give for `CC(C)n1cc(C(N)=O)c([N+](=O)[O-])n1` [Compound 64, 1-isopropyl-3-nitro-4-pyrazolecarboxamide] here?
**A.** > 50 µg/mL

**Q.** And the MIC [2, 12]?
**A.** 12.5 µg/mL (≈ 63.1 µM)

**Q.** And the MIC [3, 13]?
**A.** > 50 µg/mL

**Q.** And the MIC [4, 14]?
**A.** 50 µg/mL (≈ 252 µM)

**Q.** What about the MIC ([5]; tube dilution, read-out: MIC) of the same compound?
**A.** 50 µg/mL (≈ 252 µM)

**Q.** And the responders at 60 mg/kg [6]?
**A.** 60%

**Q.** What about the MIC [7, 15] of the same compound?
**A.** 50 µg/mL (≈ 252 µM)

**Q.** What about the MIC ([8]; tube dilution, read-out: MIC) of the same compound?
**A.** 25 µg/mL (≈ 126 µM)
